Data: PubChem BioAssay (NCI)
Values joined by “and” are separate entries in the source; they are usually repeats but may differ in a detail not shown here. Equal values may be shown once.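 Grown in 96-well plates, cells were treated for 48 hours with each compound at five concentrations. Insufficient inhibition: endpoint recorded as highest concentration tested. GI50 is the concentration that inhibits growth by half. TGI: concentration producing complete growth inhibition.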 Starred links: 1 amine or outer side, 2 acyl side, 3 side chain; linkers in the order of their positions; H or OH if unused. Positions of bridges follow the written chain, without caps; N, C: chain ends. Non-standard residues stand in square brackets, D forms with d. Residues, ends and D or L forms follow the SMILES beside them. Chains are numbered I, II in the order given. Actinocin(9to1) = Cc1c2oc3c(C)ccc(C(=O)[*:1])c3nc-2c(C(=O)[*:2])c(N)c1=O; NMeY = CN[CH](Cc1ccc(O)cc1)C(=O)O; Sar = CNCC(=O)O

Assays:
Experiment in all cases: NCI anticancer screen, dose series, 48 h
CCRF-CEM leukemia = tested on: CCRF-CEM leukemia
HCT-116 colon = tested on: HCT-116 colon
HOP-62 NSCLC = tested on: HOP-62 NSCLC
HOP-92 NSCLC = tested on: HOP-92 NSCLC
MDA-MB-435 = tested on: MDA-MB-435
MDA-N = tested on: MDA-N
MOLT-4 leukemia = tested on: MOLT-4 leukemia
NCI/ADR-RES ovarian = tested on: NCI/ADR-RES ovarian
OVCAR-5 ovarian = tested on: OVCAR-5 ovarian
UACC-257 melanoma = tested on: UACC-257 melanoma
A498 renal = tested on: A498 renal

SMILES | TGI (CCRF-CEM leukemia) [µM] | TGI (HCT-116 colon) [µM] | TGI (HOP-62 NSCLC) [µM] | TGI (HOP-92 NSCLC) [µM] | TGI (MDA-MB-435) | TGI (MDA-N) | TGI (MOLT-4 leukemia) [µM] | TGI (NCI/ADR-RES ovarian) [µM] | TGI (OVCAR-5 ovarian) | TGI (UACC-257 melanoma) | TGI (A498 renal) | GI50 (CCRF-CEM leukemia) | GI50 (HCT-116 colon) | GI50 (MDA-MB-435) | GI50 (MDA-N) | GI50 (MOLT-4 leukemia) | GI50 (NCI/ADR-RES ovarian) [µM] | GI50 (OVCAR-5 ovarian) | GI50 (UACC-257 melanoma)
COc1cccc(C(=O)Oc2ccc(OS(=O)(=O)c3ccc(C)cc3)cc2)c1C#N | > 100 | > 100 | > 100 | > 100 | > 100 µM | > 100 µM | > 100 | > 100 | > 100 µM | 96.6 µM | – | – | – | – | – | – | – | – | –
CCCNC(=O)NNC(=O)c1c[nH]c2nc(C)ccc2c1=O | > 100 | > 100 | > 100 | – | > 100 µM | > 100 µM | > 100 | > 100 | > 100 µM | > 100 µM | > 100 µM | – | – | – | – | – | – | – | –
CC1=NN(c2nc(N)nc(/C(C#N)=C\c3ccc([N+](=O)[O-])s3)n2)C(C)(C)C1 | 0.0942 | 1.23 | 1.75 | – | 0.405 µM | 2.6 µM | 0.379 | 12.8 | 21.5 µM | 0.544 µM | 26.8 µM | – | – | – | – | – | – | – | –
O=[N+]([O-])c1ccc(CN(CCCl)OCCCl)cc1 | > 100 | > 100 | > 100 | – | > 100 µM | > 100 µM | > 100 | > 100 | > 100 µM | > 100 µM | – | – | – | – | – | – | – | – | –
CN1CCc2c([nH]c3ccccc23)C1 | > 100 | > 100 | > 100 | – | > 100 µM | > 100 µM | > 100 | > 100 | > 100 µM | > 100 µM | – | – | – | – | – | – | – | – | –
CC(=O)Nc1ccc(N=Nc2c(O)c(S(=O)(=O)O)cc3cc(S(=O)(=O)O)ccc23)cc1 | – | > 100 | > 100 | > 100 | > 100 µM | > 100 µM | – | > 100 | > 100 µM | > 100 µM | – | – | – | – | – | – | – | – | –
CC(=O)OC(OC(C)=O)c1ccc2ccc3cccc4ccc1c2c34 | > 100 | 52.4 | – | 42.3 | 37.9 µM | 36.9 µM | > 100 | > 100 | 41.8 µM | 34.5 µM | 3.74 µM | – | – | – | – | – | – | – | –
CC1=C(C)CC2C(=O)N(c3cc(C(C)(C)C)ccc3C(C)(C)C)C(=O)C2C1 (stereo unspecified) | > 100 | > 100 | 82.3 | > 100 | > 100 µM | > 100 µM | > 100 | > 100 | > 100 µM | > 100 µM | – | – | – | – | – | – | – | – | –
Cc1c2oc3c(C)ccc(C(=O)NC4C(=O)NC(C(C)C)C(=O)N5CCCC5C(=O)N(C)CC(=O)N(C)C(Cc5ccc(O)cc5)C(=O)OC4C)c3nc-2c(C(=O)NC2C(=O)NC(C(C)C)C(=O)N3CCCC3C(=O)N(C)CC(=O)N(C)C(Cc3ccc(O)cc3)C(=O)OC2C)c(N)c1=O (stereo unspecified) (I: TVP[Sar][NMeY] / II: TVP[Sar][NMeY]; ester I:1-I:C, II:1-II:C; linker I:N-II:N via Actinocin(9to1); configuration not given here) | – | > 1 | – | > 1 | 0.259 µM and 0.147 µM | > 0.48 µM and 0.259 µM | – | > 1 | 0.997 µM and > 0.443 µM | 0.54 µM and 0.446 µM | 0.664 µM and 0.11 µM | 0.00256 µM and 0.00073 µM | 0.00553 µM and 0.00136 µM | 0.0459 µM and 0.0099 µM | 0.0273 µM and 0.00511 µM | 0.00426 µM and 0.00176 µM | 0.494 | 0.199 µM and 0.0508 µM | 0.0936 µM and 0.0111 µM
CCCC(=O)NC(NC1CCCCC1)(C(=O)OCC)C(F)(F)F (stereo unspecified) | > 100 | > 100 | > 100 | > 100 | > 100 µM | > 100 µM | > 100 | > 100 | > 100 µM | > 100 µM | – | – | – | – | – | – | – | – | –
COc1ccc(C2SC(N)=Nc3c2c(C)nn3C(=O)c2ccncc2)cc1OC (stereo unspecified) | > 10 | > 10 | > 10 | > 10 | > 10 µM | > 10 µM | > 10 | > 10 | > 10 µM | > 10 µM | – | – | – | – | – | – | – | – | –
Nc1c(C(=O)O)nnc2ccc(Cl)cc12 | > 100 | > 100 | > 100 | – | > 100 µM | > 100 µM | > 100 | > 100 | > 100 µM | > 100 µM | > 100 µM | – | – | – | – | – | – | – | –
Cc1c(C)c2c(c(N)c1C#N)C(=O)N(NC(=O)c1ccccc1)C2=O | > 100 | > 100 | – | > 100 | > 100 µM | > 100 µM | > 100 | > 100 | > 100 µM | > 100 µM | > 100 µM | – | – | – | – | – | – | – | –
CC1CC(OP(=O)(OCc2ccccc2)OCc2ccccc2)[C@@H](OCc2ccccc2)C(OCc2ccccc2)C1OCc1ccccc1 (stereo partly specified) | > 100 | > 100 | > 100 | – | – | > 100 µM | > 100 | > 100 | > 100 µM | > 100 µM | – | – | – | – | – | – | – | – | –
O=C(/C=C/c1ccccc1)Oc1cccc(O)c1 | – | 31.8 | > 100 | > 100 | > 100 µM | > 100 µM | 21.8 | > 100 | > 100 µM | > 100 µM | > 100 µM | – | – | – | – | – | – | – | –
COc1cc(OC)c2nc(C)c(CCCl)c(Cl)c2c1 | > 100 | > 100 | > 100 | – | > 100 µM | > 100 µM | > 100 | > 100 | > 100 µM | > 100 µM | > 100 µM | – | – | – | – | – | – | – | –
C[n+]1c2ccc(Cl)cc2nc2cc(-c3ccccc3)ccc21 | > 100 | > 100 | > 100 | – | – | – | 5.19 | > 100 | 55.5 µM | 32.9 µM | – | – | – | – | – | – | – | – | –
CCCCCCNc1n[nH]c(=O)c2c1nnn2Cc1ccccc1 | > 100 | > 100 | > 100 | > 100 | > 100 µM | > 100 µM | > 100 | > 100 | > 100 µM | > 100 µM | – | – | – | – | – | – | – | – | –
N#Cc1n[nH]n(-c2ccc(Br)cc2)c1=O | > 100 | > 100 | > 100 | – | > 100 µM | > 100 µM | – | > 100 | > 100 µM | > 100 µM | > 100 µM | – | – | – | – | – | – | – | –
NC(N)=NCCN1CC2CCC(CC2)C1 | – | > 100 | > 100 | > 100 | > 100 µM | > 100 µM | > 100 | > 100 | > 100 µM | > 100 µM | > 100 µM | – | – | – | – | – | – | – | –
